Laboratory results from patent US9073895B2 (Boehringer Ingelheim International GmbH, priority 2010, dated 2015).

Target: T1, recombinant human FLAP protein (Homo sapiens, UniProt P20292)
T1 construct: made in house; host or cells: Sf9 insect cells (membrane fraction, 100,000 x g pellet)
T1 sequence (P20292 1-161): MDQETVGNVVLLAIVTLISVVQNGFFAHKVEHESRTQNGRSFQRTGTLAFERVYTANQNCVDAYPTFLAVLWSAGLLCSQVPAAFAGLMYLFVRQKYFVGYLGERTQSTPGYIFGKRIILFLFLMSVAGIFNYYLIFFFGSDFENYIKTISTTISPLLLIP
Experiment: FLAP binding assay (SPA, displacement of [125I]L-691,831)
Details: membranes of sf9 cells expressing human FLAP, [125I]L-691,831 probe; read-out: hFLAP binding IC50
Protocol: Compounds are assessed for the ability to bind to FLAP in a binding assay that measures compound-specific displacement of an iodinated (^125I) FLAP inhibitor via a Scintillation Proximity Assay format (adapted from S. Charleson et al., Mol. Pharmacol., 1992, 41, 873-879).
Cell pellets produced from sf9 insect cells expressing recombinant human FLAP protein are resuspended in buffer A [15 mM Tris-HCl (pH 7.5), 2 mM MgCl2, 0.3 mM EDTA, 1 mM PMSF]. The cells are lysed with a Dounce homogenizer and the material is centrifuged at 10,000×g for 10 minutes. The supernatant is then collected and centrifuged at 100,000×g for 60 minutes. To prepare membrane protein for an assay, an aliquot of the 100,000×g pellet is resuspended in 1 ml of buffer A, Dounce homogenized, and finally subjected to polytron mixing (30 seconds). Membrane protein (25 μl, 5 μg) is mixed with WGA SPA beads (Amersham) and stirred for 1 h. To an assay plate (Perkin Elmer FlexiPlate) is added 25 μl of test compound prepared in Binding buffer [100 mM Tris (pH 7.5), 140 mM NaCl, 5% glycerol, 2 mM EDTA, 0.5 mM TCEP, 0.05% Tween 20], 25 μl of [^125I]L-691,831 (an iodinated analog of MK-591, Charleson et al. Mol. Pharmacol., 41, 873-879, 1992) and finally 50 μl of the bead/protein mixture. (final concentrations: beads, 200 μg/well; protein, 5μg/well; [^125I] probe, 0 08 nM/well(17 nCi/well). The plates are shaken for 2 h before reading on a Microbeta plate reader. Non-specific binding is determined by the addition of 10 μM cold L-691,831 compound.

Compound | IC50 [µM]
Nc1ncc(-c2ccc(C3(C(=O)Nc4ccc5c(c4)CCC5)CCOCC3)cc2)cn1 [Example 6, 4-[4-(2-aminopyrimidin-5-yl)phenyl]-N-(2,3-dihydro-1H-inden-5-yl)tetrahydro-2H-pyran-4-carboxamide] | 0.15
Nc1ncc(-c2ccc(C3(C(=O)Nc4ccc5c(c4)OCO5)CCOCC3)cc2)cn1 [Example 9, 4-[4-(2-aminopyrimidin-5-yl)phenyl]-N-(1,3-benzodioxol-5-yl)tetrahydro-2H-pyran-4-carboxamide] | 0.2
Cc1cc(C)nc(NC(=O)C2(c3ccc(-c4cnc(N)nc4)cc3)CCOCC2)c1 [Example 10, 4-[4-(2-aminopyrimidin-5-yl)phenyl]-N-(4,6-dimethylpyridin-2-yl)tetrahydro-2H-pyran-4-carboxamide] | 0.24
CC(C)(C)c1ccc(NC(=O)C2(c3ccc(-c4cnc(N)nc4)cc3)CCOCC2)cc1 [Example 17, 4-[4-(2-aminopyrimidin-5-yl)phenyl]-N-(4-tert-butylphenyl)tetrahydro-2H-pyran-4-carboxamide] | 0.33
CC(=O)N1CCc2ccc(NC(=O)C3(c4ccc(-c5cnc(N)nc5)cc4)CCOCC3)cc21 [Example 29, N-(1-acetyl-2,3-dihydro-1H-indol-6-yl)-4-[4-(2-aminopyrimidin-5-yl)phenyl]tetrahydro-2H-pyran-4-carboxamide] | 0.19
Nc1ncc(-c2ccc(C3(C(=O)Nc4cccc(S(=O)(=O)N5CCOCC5)c4)CCOCC3)cc2)cn1 [Example 35, 4-[4-(2-aminopyrimidin-5-yl)phenyl]-N-[3-(mopholin-4-ylsulfonyl)phenyl]tetrahydro-2H-pyran-4-carboxamide] | 0.39
CC(=O)N1CCc2cc(NC(=O)C3(c4ccc(-c5cnc(N)nc5)cc4)CCOCC3)ccc21 [Example 42, N-(1-acetyl-2,3-dihydro-1H-indol-5-yl)-4-[4-(2-aminopyrimidin-5-yl)phenyl]tetrahydro-2H-pyran-4-carboxamide] | 0.31
Nc1ncc(-c2ccc(C3(C(=O)Nc4cccc(S(=O)(=O)C(F)(F)F)c4)CCOCC3)cc2)cn1 [Example 44, 4-[4-(2-aminopyrimidin-5-yl)phenyl]-N-{3-[(trifluoromethyl)sulfonyl]phenyl}tetrahydro-2H-pyran-4-carboxamide] | 0.27
Nc1ncc(-c2ccc(C3(C(=O)Nc4cccc(CN5CCCC5)c4)CCOCC3)cc2)cn1 [Example 50, 4-[4-(2-aminopyrimidin-5-yl)phenyl]-N-[3-(pyrrolidin-1-ylmethyl)phenyl]tetrahydro-2H-pyran-4-carboxamide] | 0.44
CN1CCN(c2cccc(NC(=O)C3(c4ccc(-c5cnc(N)nc5)cc4)CCOCC3)c2)CC1 [Example 53, 4-[4-(2-aminopyrimidin-5-yl)phenyl]-N-[3-(4-methylpiperazin-1-yl)phenyl]tetrahydro-2H-pyran-4-carboxamide] | 0.28
Nc1ncc(-c2ccc(C3(C(=O)Nc4cc(-c5ccccn5)no4)CCOCC3)cc2)cn1 [Example 56, 4-[4-(2-aminopyrimidin-5-yl)phenyl]-N-[3-(pyridin-2-yl)-1,2-oxazol-5-yl]tetrahydro-2H-pyran-4-carboxamide] | 0.38
Nc1ncc(-c2ccc(C3(C(=O)Nc4cc(-c5cccnc5)no4)CCOCC3)cc2)cn1 [Example 57, 4-[4-(2-aminopyrimidin-5-yl)phenyl]-N-[3-(pyridin-3-yl)-1,2-oxazol-5-yl]tetrahydro-2H-pyran-4-carboxamide] | 0.26
Cn1c(=O)c2cc(NC(=O)C3(c4ccc(-c5cnc(N)nc5)cc4)CCOCC3)cnc2n(C)c1=O [Example 69, 4-[4-(2-aminopyrimidin-5-yl)phenyl]-N-(1,3-dimethyl-2,4-dioxo-1,2,3,4-tetrahydropyrido[2,3-d]pyrimidin-6-yl)tetrahydro-2H-pyran-4-carboxamide] | 0.26
CCOC(=O)c1ccnc(NC(=O)C2(c3ccc(-c4cnc(N)nc4)cc3)CCOCC2)c1 [Example 84, ethyl 2-[({4-[4-(2-aminopyrimidin-5-yl)phenyl]tetrahydro-2H-pyran-4-yl}carbonyl)amino]pyridine-4-carboxylate] | 0.18
Cc1ccnc(NC(=O)C2(c3ccc(-c4cnc(N)nc4)cc3)CCOCC2)c1 [Example 140, 4-[4-(2-aminopyrimidin-5-yl)phenyl]-N-(4-methylpyridin-2-yl)tetrahydro-2H-pyran-4-carboxamide] | 0.23
Cc1cccc(NC(=O)C2(c3ccc(-c4cnc(N)nc4)cc3)CCOCC2)n1 [Example 141, 4-[4-(2-aminopyrimidin-5-yl)phenyl]-N-(6-methylpyridin-2-yl)tetrahydro-2H-pyran-4-carboxamide] | 0.19
Cc1cccc(-c2cnc(NC(=O)C3(c4ccc(-c5cnc(N)nc5)cc4)CCOCC3)nc2)c1 [Example 156, 4-[4-(2-aminopyrimidin-5-yl)phenyl]-N-[5-(3-methylphenyl)pyrimidin-2-yl]tetrahydro-2H-pyran-4-carboxamide] | 0.49

The next compounds have a lower IC50 than those just listed; values first:

IC50 [µM] | Compound
0.12 | CCOC(=O)c1sc(NC(=O)C2(c3ccc(-c4cnc(N)nc4)cc3)CCOCC2)nc1-c1ccccc1 [Example 19, ethyl 2-[({4-[4-(2-aminopyrimidin-5-yl)phenyl]tetrahydro-2H-pyran-4-yl}carbonyl)amino]-4-phenyl-1,3-thiazole-5-carboxylate]
0.121 | Nc1ncc(-c2ccc(C3(C(=O)Nc4ccc(Cc5ccncc5)cc4)CCOCC3)cc2)cn1 [Example 28, 4-[4-(2-aminopyrimidin-5-yl)phenyl]-N-[4-(pyridin-4-ylmethyl)phenyl]tetrahydro-2H-pyran-4-carboxamide]
0.14 | Nc1ncc(-c2ccc(C3(C(=O)Nc4cc(C(F)(F)F)ccn4)CCOCC3)cc2)cn1 [Example 31, 4-[4-(2-aminopyrimidin-5-yl)phenyl]-N-[4-(trifluoromethyl)pyridin-2-yl]tetrahydro-2H-pyran-4-carboxamide]
0.11 | CN(C)S(=O)(=O)c1cccc(NC(=O)C2(c3ccc(-c4cnc(N)nc4)cc3)CCOCC2)c1 [Example 77, 4-[4-(2-aminopyrimidin-5-yl)phenyl]-N-[3-(dimethylsulfamoyl)phenyl] tetrahydro-2H-pyran-4-carboxamide]
0.026 | Nc1ncc(-c2ccc(C3(C(=O)Nc4ccc(C(=O)O)cn4)CCC3)cc2)cn1 [Example 96, 6-[({1-[4-(2-aminopyrimidin-5-yl)phenyl]cyclobutyl}carbonyl)amino]pyridine-3-carboxylic acid]
0.047 | Nc1ncc(-c2ccc(C3(C(=O)Nc4ccc(O)c(C(=O)O)c4)CCC3)cc2)cn1 [Example 101, 5-[({1-[4-(2-aminopyrimidin-5-yl)phenyl]cyclobutyl}carbonyl)amino]-2-hydroxybenzoic acid]
0.0175 | CS(=O)(=O)NC(=O)c1ccc(NC(=O)C2(c3ccc(-c4cnc(N)nc4)cc3)CCC2)nc1 [Example 105, 6-[({1-[4-(2-aminopyrimidin-5-yl)phenyl]cyclobutyl}carbonyl)amino]-N-(methylsulfonyl)pyridine-3-carboxamide]
0.11 | Cc1ccc(NC(=O)C2(c3ccc(-c4cnc(N)nc4)cc3)CCOCC2)nc1 [Example 139, 4-[4-(2-aminopyrimidin-5-yl)phenyl]-N-(5-methylpyridin-2-yl)tetrahydro-2H-pyran-4-carboxamide]
